Read-outs that look alike come from different tables or passages of the source.
Target: T1, CHK2 (Homo sapiens, UniProt O96017)
T1 construct: made in house
Assay: CHK2 kinase activity assay (DELFIA, phosphorylation of a CDC25C peptide)
Type: biochemical
Details: ATP 30 μM, CHK2 1 nM, read-out: IC50, inhibition of CHK2 kinase activity in vitro

T1 sequence (O96017 whole entry): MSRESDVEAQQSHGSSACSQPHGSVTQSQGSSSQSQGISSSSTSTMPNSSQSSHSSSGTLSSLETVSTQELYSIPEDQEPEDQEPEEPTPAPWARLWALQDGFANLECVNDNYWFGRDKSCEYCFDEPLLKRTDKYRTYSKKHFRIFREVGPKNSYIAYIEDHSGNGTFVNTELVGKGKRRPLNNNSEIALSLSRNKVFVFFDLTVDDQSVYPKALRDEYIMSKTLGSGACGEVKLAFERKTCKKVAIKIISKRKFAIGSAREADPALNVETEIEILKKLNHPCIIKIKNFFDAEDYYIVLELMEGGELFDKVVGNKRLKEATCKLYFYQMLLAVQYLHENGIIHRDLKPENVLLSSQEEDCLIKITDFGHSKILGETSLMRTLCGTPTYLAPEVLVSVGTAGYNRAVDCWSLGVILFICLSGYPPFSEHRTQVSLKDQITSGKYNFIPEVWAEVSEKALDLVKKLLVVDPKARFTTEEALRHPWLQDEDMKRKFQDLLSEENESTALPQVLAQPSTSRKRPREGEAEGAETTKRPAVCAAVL

SMILES	IC50 (following further studies) [µM]	IC50 (first set of tested compounds) [µM]
COc1cccc([C@@H]2CNC[C@H]2Nc2nc(-c3cc(F)ccc3O)nc3ccccc23)c1 (relative stereo) [Compound A-091, 4-Fluoro-2-(4-(trans-4-(3-methoxyphenyl)pyrrolidin-3-ylamino)quinazolin-2-yl)phenol]	≤ 0.3	–
Oc1ccccc1-c1nc(N[C@H]2CCNC2)c2cc(Br)ccc2n1 [Compound A-016, (S)-2-(6-Bromo-4-(pyrrolidin-3-ylamino)quinazolin-2-yl)phenol]	0.3 to 3	< 3
O=C(O)C1(Nc2nc(-c3cc(Cl)ccc3O)nc3ccccc23)CCNC1 (stereo not drawn) [Compound A-064, 3-(2-(5-Chloro-2-hydroxyphenyl)quinazolin-4-ylamino)pyrrolidine-3-carboxylic acid]	3 to 30	–
Oc1ccc(Cl)cc1-c1nc(N[C@@H]2CNC[C@H]2c2ccccc2)c2ccccc2n1 (relative stereo) [Compound A-063, 4-Chloro-2-(4-(trans-4-phenylpyrrolidin-3-ylamino)quinazolin-2-yl)phenol]	0.3 to 3	–
COCCCc1ccc2c(N[C@H]3CCNC3)nc(-c3ccccc3O)nc2c1 [Compound A-079, (S)-2-(7-(3-Methoxypropyl)-4-(pyrrolidin-3-ylamino)quinazolin-2-yl)phenol]	≤ 0.3	–
Oc1ccccc1-c1nc(N[C@H]2CCNC2)c2ccc(Cl)cc2n1 [Compound A-062, (S)-2-(7-Chloro-4-(pyrrolidin-3-ylamino)quinazolin-2-yl)phenol]	≤ 0.3	–
O=C([C@H]1C[C@H](Nc2nc(-c3ccccc3O)nc3ccccc23)CN1)N1CCOCC1 [Compound A-038, ((2R,4S)-4-(2-(2-Hydroxyphenyl)quinazolin-4-ylamino)pyrrolidin-2-yl)(morpholino)methanone]	≤ 0.3	< 3
Oc1ccc(-c2ccc(F)cc2)cc1-c1nc(N[C@H]2CCNC2)c2ccccc2n1 [Compound A-100, (S)-4′-Fluoro-3-(4-(pyrrolidin-3-ylamino)quinazolin-2-yl)biphenyl-4-ol]	3 to 30	–
CC(C)(O)CCc1ccc2nc(-c3cc(F)ccc3O)nc(N[C@H]3CCNC3)c2c1 [Compound A-102, (S)-4-Fluoro-2-(6-(3-hydroxy-3-methylbutyl)-4-(pyrrolidin-3-ylamino)quinazolin-2-yl)phenol]	≤ 0.3	–
Oc1ccccc1-c1nc(N[C@H]2CCNC2)c2cc(-c3ccc(CN4CCOCC4)cc3)ccc2n1 [Compound A-028, (S)-2-(6-(4-(Morpholinomethyl)phenyl)-4-(pyrrolidin-3-ylamino)quinazolin-2-yl)phenol]	0.3 to 3	< 3
Oc1ccccc1-c1nc(N[C@H]2CCN(Cc3ccccc3)C2)c2ccccc2n1 [Compound A-011, 2-[4-((S)-1-Benzylpyrrolidin-3-ylamino)-quinazolin-2-yl]-phenol]	3 to 30	3 to 30
CN(CCO)C(=O)[C@H]1C[C@H](Nc2nc(-c3ccccc3O)nc3ccccc23)CN1 [Compound A-047, (2R,4S)-N-(2-Hydroxyethyl)-4-(2-(2-hydroxyphenyl)quinazolin-4-ylamino)-N-methylpyrrolidine-2-carboxamide]	0.3 to 3	< 3
Nc1nnc(-c2ccc(O)c(-c3nc(N[C@H]4CCNC4)c4ccccc4n3)c2)s1 [Compound A-110, (S)-4-(5-Amino-1,3,4-thiadiazol-2-yl)-2-(4-(pyrrolidin-3-ylamino)quinazolin-2-yl)phenol]	≤ 0.3	–
CN(C)C(=O)[C@H]1C[C@H](Nc2nc(-c3cc(F)ccc3O)nc3ccccc23)CN1 [Compound A-046, (2R,4S)-4-(2-(5-Fluoro-2-hydroxyphenyl)quinazolin-4-ylamino)-N,N-dimethylpyrrolidine-2-carboxamide]	≤ 0.3	< 3
COC/C=C/c1ccc2c(N[C@H]3CCNC3)nc(-c3ccccc3O)nc2c1 [Compound A-078, (S,E)-2-(7-(3-Methoxyprop-1-enyl)-4-(pyrrolidin-3-ylamino)quinazolin-2-yl)phenol]	≤ 0.3	–
O=C(Nc1ccccc1)[C@H]1C[C@H](Nc2nc(-c3ccccc3O)nc3ccccc23)CN1 [Compound A-039, (2R,4S)-4-(2-(2-Hydroxyphenyl)quinazolin-4-ylamino)-N-phenylpyrrolidine-2-carboxamide]	0.3 to 3	< 3
NC(=O)c1ccc(-c2ccc(O)c(-c3nc(N[C@H]4CCNC4)c4ccccc4n3)c2)cc1 [Compound A-101, (S)-4′-Hydroxy-3′-(4-(pyrrolidin-3-ylamino)quinazolin-2-yl)biphenyl-4-carboxamide]	3 to 30	–
COc1ccc([C@@H]2CNC[C@H]2Nc2nc(-c3cc(F)ccc3O)nc3ccccc23)cc1 (relative stereo) [Compound A-090, 4-Fluoro-2-(4-(trans-4-(4-methoxyphenyl)pyrrolidin-3-ylamino)quinazolin-2-yl)phenol]	≤ 0.3	–
CN(c1nc(-c2cc(F)ccc2O)nc2ccccc12)[C@H]1CCNC1 [Compound A-043, (S)-4-Fluoro-2-(4-(methyl(pyrrolidin-3-yl)amino)quinazolin-2-yl)phenol]	≤ 0.3	< 3
CN(C)C(=O)[C@H]1C[C@H](Nc2nc(-c3cc(F)ccc3O)nc3cc(CCCO)ccc23)CN1 [Compound A-061, (2R,4S)-4-(2-(5-Fluoro-2-hydroxyphenyl)-7-(3-hydroxypropyl)quinazolin-4-ylamino)-N,N-dimethylpyrrolidine-2-carboxamide]	≤ 0.3	–
CC(C)N(C)C(=O)[C@H]1C[C@H](Nc2nc(-c3ccccc3O)nc3ccccc23)CN1 [Compound A-048, (2R,4S)-4-(2-(2-Hydroxyphenyl)quinazolin-4-ylamino)-N-isopropyl-N-methylpyrrolidine-2-carboxamide]	≤ 0.3	< 3
CN1CCC(Nc2nc(-c3ccccc3O)nc3ccccc23)CC1 [Compound A-003, 2-[4-(1-Methylpiperidin-4-ylamino)-quinazolin-2-yl]-phenol]	0.3 to 3	< 3
CC(C)(O)C#Cc1ccc2c(N[C@H]3CCNC3)nc(-c3cc(F)ccc3O)nc2c1 [Compound A-093, (S)-4-Fluoro-2-(7-(3-hydroxy-3-methylbut-1-ynyl)-4-(pyrrolidin-3-ylamino)quinazolin-2-yl)phenol]	≤ 0.3	–
COC(=O)c1ccc(O)c(-c2nc(N[C@H]3CCNC3)c3ccccc3n2)c1 [Compound A-033, (S)-Methyl 4-hydroxy-3-(4-(pyrrolidin-3-ylamino)quinazolin-2-yl)benzoate]	≤ 0.3	< 3
Oc1ccc(F)cc1-c1nc(NC2CCCCNC2)c2ccccc2n1 (stereo not drawn) [Compound A-059, 2-(4-(Azepan-3-ylamino)quinazolin-2-yl)-4-fluorophenol]	≤ 0.3	–
O=C([C@H]1C[C@H](Nc2nc(-c3ccccc3O)nc3ccccc23)CN1)N1CCCCC1 [Compound A-037, ((2R,4S)-4-(2-(2-Hydroxyphenyl)quinazolin-4-ylamino)pyrrolidin-2-yl)(piperidin-1-yl)methanone]	≤ 0.3	< 3
COCCOc1cc2c(N[C@H]3CCNC3)nc(-c3cc(F)ccc3O)nc2cc1OC [Compound A-103, (S)-4-Fluoro-2-(7-methoxy-6-(2-methoxyethoxy)-4-(pyrrolidin-3-ylamino)quinazolin-2-yl)phenol]	≤ 0.3	–

Reference: patent US8324226B2, “Therapeutic oxy-phenyl-aryl compounds and their use” (Cancer Research Technology Limited, priority 2007, dated 2012)
